Assay results reported in patent EP4467141A1, “PYRAZOLO-QUINOLINES AS SELECTIVE INHIBITORS OF GENOTOXIC STRESS-INDUCED IKK/NF- KB PATHWAYS FOR CANCER THERAPY” (Max-Delbrück-Centrum für Molekulare Medizin in der …, priority 2023, dated 2024).

Legend:
BIRC3 = assay: RT-qPCR mRNA expression analysis of BIRC3 in U2-OS cells after irradiation; type: cell-based; details: 10 µM, 8 hours after 10 Gy irradiation
MET (cMet) Y1235D = molecular target: T1, MET (cMet) Y1235D (Homo sapiens, UniProt P08581, Y1235D); assay: Kinase panel study; type: biochemical; details: read-out: Percentage of inhibition; for inhibition at 1 µM: 1000nM; for inhibition at 10 µM: 10000nM
T1 construct: purchased Thermo Fisher Scientific
Outline: (§1)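 Inhibition was measured in an outsourced in vitro kinase panel using the ZLyte or Adapta format under the provider's standard procedures. Values are percent inhibition at 10 µM or 1 µM compound, and IC50s were also obtained.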

MARK1 (MARK) = molecular target: T2, MARK1 (MARK) (Homo sapiens, UniProt Q9P0L2); assay: Kinase panel study; type: biochemical; details: read-out: Percentage of inhibition; for inhibition at 1 µM: 1000nM; for inhibition at 10 µM: 10000nM
T2 construct: purchased Thermo Fisher Scientific
Outline: as §1

AMPK (A1/B2/G3) = molecular target: T3, AMPK (A1/B2/G3) (Homo sapiens, UniProt Q13131); assay: Kinase panel study; type: biochemical; details: read-out: Percentage of inhibition; for inhibition at 1 µM: 1000nM; for inhibition at 10 µM: 10000nM
T3 construct: purchased Thermo Fisher Scientific
Outline: as §1

[1] = test system: p65 nuclear translocation; assay: HCS screening: etoposide-induced p65 nuclear translocation in U2-OS cells; type: cell-based; details: Homo sapiens, U2OS, read-out: etoposide-stimulated IC50 of p65 nuclear translocation
Protocol: Fig.1: Identification of inhibitors specific for DNA damage-induced NF-κB activity. (A) Flowchart representing the high-throughput chemical library screening. A screen/counter-screen strategy was used by stimulating NF-κB in U2-OS cells with etoposide (50 µM for 90 min) and hits were counter-screened with TNFα (10 ng/ml for 20 min). Cells were pre-treated with compounds (10 µM) for 1 hour before stimulation, fixed, and percent p65 nuclear translocation measured by fluorescence microscopy. IC50 values were used for final selection. (B) Comparison of mean p65 nuclear translocation following either etoposide or TNFa stimulation after treatment with each counter-screened hit compound. Values were normalized to etoposide or TNFα positive controls. Specific inhibitors (red) of DNA damage-induced NF-κB signaling were defined by setting cut-off criteria (black line). […] (E) Western blot analysis (top) and quantification (bottom) of NF-κB subunit p65 phosphorylation (S536) following 1-hour pre-treatment with DMSO, MW01 (10 µM), or MW05 (10 µM), in unstimulated, after 90 min irradiation (IR, 20 Gy), or after 20 min TNFα (10 ng/mL) conditions in U2- OS cells. […]
To identify inhibitors that selectively prevent DNA damage-induced NF-κB activation, we established a high-throughput screening platform quantifying p65 nuclear translocation, an essential step in NF-κB activation (Hayden and Ghosh, 2008). […]

T1 sequence (P08581 25-1390 Y1235D): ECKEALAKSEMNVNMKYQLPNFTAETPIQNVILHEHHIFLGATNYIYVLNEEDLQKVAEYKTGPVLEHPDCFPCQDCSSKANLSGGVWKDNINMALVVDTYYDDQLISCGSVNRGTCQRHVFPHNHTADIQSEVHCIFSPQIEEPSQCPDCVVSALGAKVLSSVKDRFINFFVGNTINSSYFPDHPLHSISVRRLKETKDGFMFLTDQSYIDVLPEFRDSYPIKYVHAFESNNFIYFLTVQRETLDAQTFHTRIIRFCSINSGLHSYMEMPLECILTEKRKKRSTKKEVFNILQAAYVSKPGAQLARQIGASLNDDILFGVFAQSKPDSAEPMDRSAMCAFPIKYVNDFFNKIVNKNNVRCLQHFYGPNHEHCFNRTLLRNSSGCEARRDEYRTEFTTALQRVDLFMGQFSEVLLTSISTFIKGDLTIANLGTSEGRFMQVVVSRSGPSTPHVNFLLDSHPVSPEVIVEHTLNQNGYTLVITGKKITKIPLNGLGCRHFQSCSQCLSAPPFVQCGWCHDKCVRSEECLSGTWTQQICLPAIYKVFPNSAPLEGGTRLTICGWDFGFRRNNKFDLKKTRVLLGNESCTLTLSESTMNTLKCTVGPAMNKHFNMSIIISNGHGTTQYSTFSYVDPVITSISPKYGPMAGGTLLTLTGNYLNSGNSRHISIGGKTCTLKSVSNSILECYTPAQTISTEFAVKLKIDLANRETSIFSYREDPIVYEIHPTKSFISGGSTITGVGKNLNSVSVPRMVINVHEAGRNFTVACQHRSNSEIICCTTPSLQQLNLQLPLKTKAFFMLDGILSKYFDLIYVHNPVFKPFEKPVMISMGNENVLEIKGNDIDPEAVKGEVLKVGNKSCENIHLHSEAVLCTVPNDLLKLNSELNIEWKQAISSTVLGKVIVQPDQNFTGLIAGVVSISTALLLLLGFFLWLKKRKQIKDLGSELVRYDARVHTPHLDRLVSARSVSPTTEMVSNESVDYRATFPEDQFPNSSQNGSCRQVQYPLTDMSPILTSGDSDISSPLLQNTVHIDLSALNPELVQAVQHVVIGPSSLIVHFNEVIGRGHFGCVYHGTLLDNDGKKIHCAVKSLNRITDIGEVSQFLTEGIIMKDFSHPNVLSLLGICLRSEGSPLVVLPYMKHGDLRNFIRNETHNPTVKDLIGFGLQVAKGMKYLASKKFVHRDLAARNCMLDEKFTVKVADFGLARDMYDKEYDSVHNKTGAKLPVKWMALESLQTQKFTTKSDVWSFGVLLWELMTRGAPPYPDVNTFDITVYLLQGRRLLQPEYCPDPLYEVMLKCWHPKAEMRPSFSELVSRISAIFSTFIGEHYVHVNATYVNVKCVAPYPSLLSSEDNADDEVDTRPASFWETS
T3 sequence (Q13131 whole entry): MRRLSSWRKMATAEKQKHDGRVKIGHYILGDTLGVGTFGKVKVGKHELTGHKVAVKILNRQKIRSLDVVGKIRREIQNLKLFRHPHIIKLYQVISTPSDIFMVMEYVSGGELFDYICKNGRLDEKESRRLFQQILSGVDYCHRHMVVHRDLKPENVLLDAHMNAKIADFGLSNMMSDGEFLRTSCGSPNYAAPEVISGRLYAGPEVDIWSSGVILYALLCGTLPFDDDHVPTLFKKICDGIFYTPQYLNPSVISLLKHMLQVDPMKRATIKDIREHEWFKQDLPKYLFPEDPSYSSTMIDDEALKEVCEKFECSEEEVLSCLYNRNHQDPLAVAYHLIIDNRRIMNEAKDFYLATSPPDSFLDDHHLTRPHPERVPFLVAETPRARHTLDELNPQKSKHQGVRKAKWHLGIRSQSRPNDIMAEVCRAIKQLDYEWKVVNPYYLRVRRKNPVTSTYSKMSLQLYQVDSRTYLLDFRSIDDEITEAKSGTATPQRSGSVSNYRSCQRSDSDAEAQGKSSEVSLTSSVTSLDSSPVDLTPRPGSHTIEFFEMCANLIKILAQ
T3 sequence (O43741 whole entry partner): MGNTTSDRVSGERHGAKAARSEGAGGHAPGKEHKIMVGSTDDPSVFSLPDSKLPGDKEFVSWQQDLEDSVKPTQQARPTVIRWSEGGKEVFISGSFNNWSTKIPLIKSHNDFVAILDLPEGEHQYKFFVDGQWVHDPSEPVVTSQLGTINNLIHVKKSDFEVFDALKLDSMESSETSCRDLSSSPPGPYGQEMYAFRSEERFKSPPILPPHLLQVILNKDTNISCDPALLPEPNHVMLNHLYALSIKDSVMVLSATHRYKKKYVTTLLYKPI
T3 sequence (Q9UGI9 whole entry partner): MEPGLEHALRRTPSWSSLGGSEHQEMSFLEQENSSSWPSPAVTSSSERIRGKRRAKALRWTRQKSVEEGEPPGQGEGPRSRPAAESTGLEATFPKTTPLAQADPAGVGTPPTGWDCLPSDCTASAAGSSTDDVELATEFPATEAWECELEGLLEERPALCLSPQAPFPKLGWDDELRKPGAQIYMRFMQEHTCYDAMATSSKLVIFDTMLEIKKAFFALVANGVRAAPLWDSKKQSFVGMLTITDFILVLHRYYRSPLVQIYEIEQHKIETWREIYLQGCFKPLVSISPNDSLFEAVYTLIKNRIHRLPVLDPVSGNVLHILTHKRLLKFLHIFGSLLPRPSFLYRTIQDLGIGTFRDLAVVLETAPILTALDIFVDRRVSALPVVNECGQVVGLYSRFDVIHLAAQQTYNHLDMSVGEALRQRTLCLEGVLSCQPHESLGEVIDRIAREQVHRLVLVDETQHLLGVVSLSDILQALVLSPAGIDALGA
T2 sequence (Q9P0L2 whole entry): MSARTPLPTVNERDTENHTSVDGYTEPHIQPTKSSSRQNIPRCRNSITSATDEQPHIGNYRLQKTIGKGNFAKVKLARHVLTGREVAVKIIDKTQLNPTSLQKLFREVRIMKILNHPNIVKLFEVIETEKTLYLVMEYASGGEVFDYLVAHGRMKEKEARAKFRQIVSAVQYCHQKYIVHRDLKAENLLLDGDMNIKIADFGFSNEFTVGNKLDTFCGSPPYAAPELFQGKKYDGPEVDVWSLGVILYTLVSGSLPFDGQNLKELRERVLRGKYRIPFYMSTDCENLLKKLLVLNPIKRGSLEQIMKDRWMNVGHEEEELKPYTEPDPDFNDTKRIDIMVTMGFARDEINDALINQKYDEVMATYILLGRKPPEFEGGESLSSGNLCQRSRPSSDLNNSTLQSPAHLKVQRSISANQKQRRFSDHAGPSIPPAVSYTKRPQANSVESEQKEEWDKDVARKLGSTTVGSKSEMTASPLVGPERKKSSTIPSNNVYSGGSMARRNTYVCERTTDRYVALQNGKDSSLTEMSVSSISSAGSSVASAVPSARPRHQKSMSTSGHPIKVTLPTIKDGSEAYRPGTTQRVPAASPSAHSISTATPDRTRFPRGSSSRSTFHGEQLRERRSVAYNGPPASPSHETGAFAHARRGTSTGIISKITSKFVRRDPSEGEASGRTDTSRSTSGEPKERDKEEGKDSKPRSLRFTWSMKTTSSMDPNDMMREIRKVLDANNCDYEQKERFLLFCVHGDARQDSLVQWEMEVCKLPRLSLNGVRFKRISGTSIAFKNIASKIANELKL

Row | SMILES | upregulation of anti-apoptotic NF-κB target gene BIRC3 (BIRC3) | inhibition at 1 µM (MET (cMet) Y1235D) [%] | inhibition at 10 µM (MET (cMet) Y1235D) [%] | inhibition at 1 µM (MARK1 (MARK)) [%] | inhibition at 10 µM (MARK1 (MARK)) [%] | inhibition at 1 µM (AMPK (A1/B2/G3)) [%] | inhibition at 10 µM (AMPK (A1/B2/G3)) [%] | IC50 [1] [nM]
1 | COc1ccc2c(c1OC)c(=O)n1c3ccc(O)cc3c3ccnc2c31 [MW01, 5-Hydroxy-10,11-dimethoxy-9H-benzo[c]indolo[3,2,1-ij][1,5]naphthyridin-9-one] | abolished | -2 | 4 | 4 | 6 | 3 | 19 | 460
2 | COc1ccc2cc3c(N)nn(C(=O)c4cccc(N(C)C)c4)c3nc2c1 [MW05, (3-Amino-7-methoxypyrazolo[3,4-b]quinolin-1-yl)-[3-(dimethylamino)phenyl]methanone] | abolished | 1 | -44 | 3 | -5 | 0 | -6 | 690
